Source: patent US8889724B2, “Tetrazole compounds for reducing uric acid” (Wellstat Therapeutics Corporation, priority 2008, dated 2014)
Several values for one entry are separate records, joined by “and”; a condition that tells them apart may be missing. Equal values may be shown once. Each block holds one compound with its values, some of them ahead of it.

Legend:
human URAT1 = human URAT1 (Homo sapiens (Human), UniProt Q96S37); assay: URAT1 inhibition assay: [8-14C] urate uptake in hURAT1-HEK cells; type: cell-based; conditions: for inhibition at 10 µM: hURAT1-HEK cells; for IC50: 14C urate uptake in hURAT1-HEK cells
Sequence of human URAT1 (Q96S37 whole entry): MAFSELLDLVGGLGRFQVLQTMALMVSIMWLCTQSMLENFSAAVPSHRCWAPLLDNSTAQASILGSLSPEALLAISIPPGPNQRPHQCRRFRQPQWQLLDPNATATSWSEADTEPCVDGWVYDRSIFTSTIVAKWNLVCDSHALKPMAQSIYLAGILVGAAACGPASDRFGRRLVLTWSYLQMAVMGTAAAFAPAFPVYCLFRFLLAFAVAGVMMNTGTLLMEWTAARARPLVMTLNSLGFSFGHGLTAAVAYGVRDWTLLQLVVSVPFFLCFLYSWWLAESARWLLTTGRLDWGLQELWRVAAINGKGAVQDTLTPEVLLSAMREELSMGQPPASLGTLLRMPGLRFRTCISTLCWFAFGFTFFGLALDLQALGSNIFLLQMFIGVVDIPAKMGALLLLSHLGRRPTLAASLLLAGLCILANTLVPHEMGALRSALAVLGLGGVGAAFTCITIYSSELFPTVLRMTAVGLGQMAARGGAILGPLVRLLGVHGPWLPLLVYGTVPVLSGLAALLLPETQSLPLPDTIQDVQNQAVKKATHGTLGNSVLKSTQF
Experimental: URAT1 (Uric Acid Transporter 1) is expressed on the apical membrane in renal tubules. It mediates the re-uptake of uric acid from the urine into the blood.
A suitable assay involves transfection of cells (e g human embryonic kidney cells; “HEK”) with a vector encoding human URAT1, followed by determination of the ability of transfected cells to take up radiolabeled uric acid. The activity of compounds as URAT1 inhibitors is evaluated by their ability to block uric acid uptake by transfected cells.
Test Compounds and Chemicals:
Urate (50-60 mCi/mmol; American Radio Chemicals, Cat. No. ARC0513).
Subcloning of hURAT1 into the Expression Vector:
Plasmid vector pCMV6-XL5 containing hURAT1 cDNA (Cat. No. SC125624) and the expression vector pCMV6-Neo (Cat. No. pCMVNEO) were obtained from OriGene Technologies, Inc. The full-length hURAT1 cDNA was obtained from the vector pCMV6-XL5 and subcloned into the expression vector pCMV6-Neo to create the hURAT1 expression plasmid pCMV6-hURAT1. The sequences were verified by automatic DNA sequencing.
Cell Culture, Transfection of URAT1 Expressing Plasmids and the Establishment of Stably Expressing HEK Cells for hURAT1:
For transfection experiments, cells were plated on 60 mm dishes in 1 ml media per dish. […] Stable transfectants expressing hURAT1 (herein after referred as hURAT1-HEK cells) or cells having only the expression vector pCMV6-Neo (herein after referred as mock-HEK cells) were verified using reverse transcription polymerase chain reaction (RT-PCR) methods.
[8-^14C] Urate Uptake Assay:
Before the uptake assay started, the culture medium was removed and the cells were incubated for 5 min in 0.6 ml of HBSS. After that HBSS was removed, the prepared reaction solutions were added into each well and incubated for 5 min at room temperature. Then the reaction solution was removed, cells were washed twice with 0.6 ml of cold HBSS and lysed with 0.2 ml of 0.1 M NaOH for 20 min. […] Test compounds were dissolved in DMSO and the same concentration of DMSO was added into the wells of mock-HEK cells and the hURAT1-HEK cells that didn't contain test compounds. For each test compound, the uptake assay was performed 2 times and carried out in triplicate. Urate uptake of the cells for each test condition was presented as the average percent inhibition in comparison to the DMSO control. The radioactivity values obtained for the wells that contained DMSO were taken as 100% uptake of the cells. The observed concentration-percent inhibition data were fitted to a sigmoidal concentration-effect model, where: % Inhibition=(100*Conc^Slope)/(IC50^Slope+Conc^Slope)
In this example the compounds were not necessarily tested simultaneously.

[1] = Rat pilot single-dose oral pharmacokinetic study with Compound EC; type: in vivo; conditions: 100 mg/kg single oral gavage; for Compound EC concentration in plasma, individual rats: male Sprague-Dawley rat
Experimental: Rat Pilot Single-Dose Oral Pharmacokinetic Study with Compound EC
Determination of the Plasma Profile of Compound EC Following Single Oral Gavage Administration to Male Rats.
(§1) Test compound was suspended in 1% HPMC using a tissue homogenizer to minimize particles and maximize uniformity of the suspension and stored at 4° C. The formulations was thoroughly mixed just prior to administration. A dose of 100 mg/kg of test compounds or vehicle (1% HPMC) was administered to male Sprague-Dawley rats by single oral gavage. […] The blood samples were centrifuged within 30 minutes of collection under refrigeration (2-8° C.) for 7 minutes at 6000 rpm. Following centrifugation, the plasma were harvested into a single tube for each animal at each time point and immediately frozen at −80° C. until analyzed using LC/MS-MS. Serial plasma concentration time data was subjected to pharmacokinetic analyses using WinNonlin Standard (v2.1, Pharsight Corporation) and Microsoft EXCEL.
1. Rats received single oral gavage of Compound EC, 100 mg/kg, and plasma was collected at certain times.
(§2) 2. Plasma was stored at −80° C. until the day of analysis.
(§3) 3. Samples were thawed on 37° C. bath for 5 min and vortexed at top speed for 10 sec.
(§4) 4. Rat plasma, 0.1 mL was mixed with 0.2 mL Acetonitrile, vortexed 1 min, spun down 14000 rpm, 17000 g, at 4° C., for 25 min.
(§5) 5. Supernatants were filtered through 0.45 micron, 4 mm, PTFE membrane syringe filter (Phenomenex # AF0-3102-52), and 15 microL were injected and resolved on Luna 3 micron, 100 A pore, C8(2), 150×3 mm, reverse phase column (Phenomenex#00F-4248-YO, SN#259151-7) in 50 min linear gradient from 40% to 69% of (0.1% Formic Acid, 89.9% Acetonitrile, 10% Methanol) at 0.25 mL/min, 107 bar, 37° C. column temperature, method 406975M1, AGILENT sequence 0226-09A, Agilent 1100 LC-MS.
(§6) All samples were run in duplicate, 210 nm and 230 nm Absorbances, Negative and Positive ionization spectrograms were recorded.
Step 1. Plasma from “Vehicle” animals (pooled), 0.19 mL, was mixed with 0.01 mL 20× stock of Compound EC in Methanol to make 500 microM, 250 microM, 125 microM, concentrations of Compound EC in plasma.
For example: 190 microL plasma+10 microL of 10 mM Compound EC in methanol=0.2 mL plasma with 500 microM Compound EC.
(§7) Step 2. Samples from step 1 were vortexed for 10 sec at top speed.
(§8) Step 3. 0.4 mL of acetonitrile was added to all samples from Step 2, and all vials were vortexed at top speed for 1 min.
(§9) Step 4. All samples from step 3 were spun down 14000 rpm, 17000 g, at 4° C., for 25 min.
as §5, with “Step 5.” for “5.”, “AF0-3102-52),” for “AF0-3102-52), and”, “temperature. All samples were run in duplicate, 210 nm and 230 nm Absorbances, Negative and Positive ionization spectrograms were recorded.” for “temperature, method 406975M1, AGILENT sequence 0226-09A, Agilent 1100 LC-MS.”

[2] = Rat pilot single-dose oral pharmacokinetic study with Compound EG; type: in vivo; conditions: 100 mg/kg single oral gavage; for Concentration of Compound EG in rat plasma, individual rats: male Sprague-Dawley rat
Experimental: Rat Pilot Single-Dose Oral Pharmacokinetic Study with Compound EG
Determination of the Plasma Profile of Compound EG Following Single Oral Gavage Administration to Male Rats.
as §1
1. Rats received single oral gavage of Compound EG, 100 mg/kg, and plasma was collected at certain times.
as §2, §3, §4, §5, §6
Step 1. Plasma from “Vehicle” animals (pooled), 0.19 mL, was mixed with 0.01 mL 20× stock of Compound EG in Methanol to make 500 microM, 250 microM, 125 microM, . . . , concentrations of Compound EG in plasma.
For example: 190 microL plasma+10 microL of 10 mM Compound EG in methanol=0.2 mL plasma with 500 microM Compound EG.
as §7, §8, §9
as §5, with “Step 5.” for “5.”, “AF0-3102-52),” for “AF0-3102-52), and”, “temperature. All samples were run in duplicate, 210 nm and 230 nm Absorbances, Negative and Positive ionization spectrograms were recorded.” for “temperature, method 406975M1, AGILENT sequence 0226-09A, Agilent 1100 LC-MS.”

[3] = Sprague-Dawley, rat, male rats, plasma
[4] = Sprague-Dawley, rat, male rats, plasma, read-out: AUC0-24
[5] = male, Sprague-Dawley, rat, plasma, 0 HR
[6] = male, Sprague-Dawley, rat, plasma, 0.25 HR
[7] = male, Sprague-Dawley, rat, plasma, 0.5 HR
[8] = male, Sprague-Dawley, rat, plasma, 1 HR
[9] = male, Sprague-Dawley, rat, plasma, 2 HR
[10] = male, Sprague-Dawley, rat, plasma, 4 HR
[11] = male, Sprague-Dawley, rat, plasma, 6 HR
[12] = male, Sprague-Dawley, rat, plasma, 8 HR
[13] = male, Sprague-Dawley, rat, plasma, 24 HR

SMILES: Cc1cccc(C)c1COc1cccc(Cc2nnn[nH]2)c1C [EH, 5-(3-(2,6-Dimethylbenzyloxy)-2-methylbenzyl)-1H-tetrazole]
inhibition at 10 µM (human URAT1): 80%

SMILES: Fc1cccc(F)c1COc1ccc(Cc2nnn[nH]2)cc1 [BD, 5-(4-(2,6-Difluorobenzyloxy)benzyl)-1H-tetrazole]
inhibition at 10 µM (human URAT1): 56.6%

SMILES: COc1c(Cc2nnn[nH]2)cccc1OCc1c(C)cccc1C [EI, 5-(3-(2,6-Dimethylbenzyloxy)-2-methoxybenzyl)-1H-tetrazole]
inhibition at 10 µM (human URAT1): 44%

SMILES: COc1ccc(Cc2nnn[nH]2)cc1OCc1c(C)cccc1C [ED, 5-(3-(2,6-Dimethylbenzyloxy)-4-methoxybenzyl)-1H-tetrazole]
inhibition at 10 µM (human URAT1): 96%
IC50 (human URAT1): 250 nM

The remaining lines, values ahead:

inhibition at 10 µM (human URAT1): 95.2%
IC50 (human URAT1): 240 nM
Cmax [1, 3]: 61000 ng/mL
AUC(0-t) [1, 4]: 672 µg·h/mL
Compound EC concentration in plasma, individual rats ([1]; 0.25 HR): 114 µM and 67 µM
Compound EC concentration in plasma, individual rats ([1]; 0.5 HR): 45 µM and 25 µM
Compound EC concentration in plasma, individual rats ([1]; 1 HR): 17 µM and 222 µM
Compound EC concentration in plasma, individual rats ([1]; 2 HR): 384 µM and 29 µM
Compound EC concentration in plasma, individual rats ([1]; 4 HR): 35 µM and 11 µM
Compound EC concentration in plasma, individual rats ([1]; 6 HR): 85 µM and 73 µM and 62 µM
Compound EC concentration in plasma, individual rats ([1]; 8 HR): 107 µM and 262 µM
Compound EC concentration in plasma, individual rats ([1]; 24 HR): 0 µM
concentration at 0 h [1, 5]: 0 ng/mL
concentration at 0.25 h [1, 6]: 27000 ng/mL
concentration at 0.5 h [1, 7]: 10000 ng/mL
concentration at 1 h [1, 8]: 35000 ng/mL
concentration at 2 h [1, 9]: 61000 ng/mL
concentration at 4 h [1, 10]: 7000 ng/mL
concentration at 6 h [1, 11]: 22000 ng/mL
concentration at 8 h [1, 12]: 54000 ng/mL
concentration at 24 h [1, 13]: 0 ng/mL
Detection in plasma (in words) ([1]; rat, LC-MS): readily detected
SMILES: Cc1cccc(C)c1COc1cccc(Cc2nnn[nH]2)c1 [Compound EC, 5-(3-(2,6-Dimethylbenzyloxy)benzyl)-1H-tetrazole]

inhibition at 10 µM (human URAT1): 95.6%
IC50 (human URAT1): 130 nM
Cmax [2, 3]: 22000 ng/mL
AUC(0-t) [2, 4]: 94.9 µg·h/mL
Concentration of Compound EG in rat plasma, individual rats ([2]; 0.25 HR): 19 µM and 27 µM
Concentration of Compound EG in rat plasma, individual rats ([2]; 0.5 HR): 29 µM and 18 µM
Concentration of Compound EG in rat plasma, individual rats ([2]; 1 HR): 101 µM and 42 µM
Concentration of Compound EG in rat plasma, individual rats ([2]; 2 HR): 25 µM and 50 µM
Concentration of Compound EG in rat plasma, individual rats ([2]; 4 HR): 14 µM and 23 µM
Concentration of Compound EG in rat plasma, individual rats ([2]; 6 HR): 10 µM and 17 µM
Concentration of Compound EG in rat plasma, individual rats ([2]; 8 HR): 5 µM and 19 µM
Concentration of Compound EG in rat plasma, individual rats ([2]; 24 HR): 2 µM and 0 µM
concentration at 0 h [2, 5]: 0 ng/mL
concentration at 0.25 h [2, 6]: 7000 ng/mL
concentration at 0.5 h [2, 7]: 7000 ng/mL
concentration at 1 h [2, 8]: 22000 ng/mL
concentration at 2 h [2, 9]: 12000 ng/mL
concentration at 4 h [2, 10]: 6000 ng/mL
concentration at 6 h [2, 11]: 4000 ng/mL
concentration at 8 h [2, 12]: 4000 ng/mL
concentration at 24 h [2, 13]: 0 ng/mL
Detection in plasma (in words) ([2]; rat, LC-MS): readily detected
SMILES: Cc1ccc(Cc2nnn[nH]2)cc1OCc1c(C)cccc1C [Compound EG, 5-(3-(2,6-Dimethylbenzyloxy)-4-methylbenzyl)-1H-tetrazole]

inhibition at 10 µM (human URAT1): 92%
IC50 (human URAT1): 740 nM
SMILES: Cc1cccc(C)c1COc1cccc(CCc2nnn[nH]2)c1 [EF, 5-(3-(2,6-Dimethylbenzyloxy)phenethyl)-1H-tetrazole]
